Residue numbers refer to the chain shown, from its start.
How the values were obtained:
[1] = molecular target: Tyrosine-protein kinase JAK1 (Homo sapiens, UniProt P23458); test: Selectivity interaction (Kinase panel (33PanQinase(R) Activity Assay)) EUB0000877a JAK1
[2] = molecular target: T1, Aurora kinase A (Homo sapiens) (UniProt O14965); test: Selectivity interaction (ActivX KiNativ screen (kinase selectivity in THP-1 cell lysates)) EUB0000639a STK6; assay type: subcellular; settings: lysate, at 0.2 µM
T1 sequence (whole entry): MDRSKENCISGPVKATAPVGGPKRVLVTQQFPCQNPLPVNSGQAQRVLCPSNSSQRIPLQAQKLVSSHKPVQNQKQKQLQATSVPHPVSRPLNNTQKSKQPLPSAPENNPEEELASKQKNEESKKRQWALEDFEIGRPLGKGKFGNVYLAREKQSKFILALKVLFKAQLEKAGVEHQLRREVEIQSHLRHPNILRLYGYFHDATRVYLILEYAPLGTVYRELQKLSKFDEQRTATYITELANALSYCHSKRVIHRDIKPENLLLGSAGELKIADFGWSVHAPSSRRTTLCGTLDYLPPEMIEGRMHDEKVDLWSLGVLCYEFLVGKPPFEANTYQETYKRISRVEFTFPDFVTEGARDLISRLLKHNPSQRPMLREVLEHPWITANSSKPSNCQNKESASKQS

[3] = test system: T2, Receptor-type tyrosine-protein kinase FLT3 (Homo sapiens), P36888 [N841I]; test: (§1) Selectivity interaction (KinomeScan (DiscoverX)) EUB0000595a FLT3; settings: at 10 µM
T2 sequence (whole entry): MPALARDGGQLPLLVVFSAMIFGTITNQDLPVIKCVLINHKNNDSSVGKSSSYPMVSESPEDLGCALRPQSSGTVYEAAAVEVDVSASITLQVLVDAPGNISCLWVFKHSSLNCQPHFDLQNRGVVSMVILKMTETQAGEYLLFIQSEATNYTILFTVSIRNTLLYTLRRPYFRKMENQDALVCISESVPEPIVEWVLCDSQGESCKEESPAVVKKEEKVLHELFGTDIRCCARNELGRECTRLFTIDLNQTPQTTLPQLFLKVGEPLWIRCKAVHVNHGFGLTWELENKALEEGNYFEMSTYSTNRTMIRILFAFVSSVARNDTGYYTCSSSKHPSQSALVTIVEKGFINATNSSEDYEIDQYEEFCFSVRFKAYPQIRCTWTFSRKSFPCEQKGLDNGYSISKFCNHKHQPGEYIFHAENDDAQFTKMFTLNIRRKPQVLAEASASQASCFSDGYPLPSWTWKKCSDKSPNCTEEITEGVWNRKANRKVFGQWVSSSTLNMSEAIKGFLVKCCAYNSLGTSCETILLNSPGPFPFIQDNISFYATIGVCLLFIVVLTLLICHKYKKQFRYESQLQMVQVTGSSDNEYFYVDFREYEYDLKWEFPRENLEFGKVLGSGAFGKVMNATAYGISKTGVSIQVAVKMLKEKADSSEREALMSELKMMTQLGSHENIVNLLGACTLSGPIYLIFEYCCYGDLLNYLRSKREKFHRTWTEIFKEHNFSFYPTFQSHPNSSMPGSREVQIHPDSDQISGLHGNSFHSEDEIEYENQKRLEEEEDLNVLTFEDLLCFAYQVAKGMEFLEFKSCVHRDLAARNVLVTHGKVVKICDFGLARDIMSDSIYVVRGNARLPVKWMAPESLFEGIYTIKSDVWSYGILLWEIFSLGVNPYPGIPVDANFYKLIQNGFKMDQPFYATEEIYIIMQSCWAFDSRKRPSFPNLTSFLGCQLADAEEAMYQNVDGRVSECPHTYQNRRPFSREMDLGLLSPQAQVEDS

[4] = test system: T3, Receptor-type tyrosine-protein kinase FLT3 (Homo sapiens), P36888 [K663Q]; test: as §1; settings: at 10 µM
T3 sequence (whole entry): T2 sequence (whole entry) with K663Q, I841N

Tyrosine-protein kinase JAK1, sequence (P23458 whole entry): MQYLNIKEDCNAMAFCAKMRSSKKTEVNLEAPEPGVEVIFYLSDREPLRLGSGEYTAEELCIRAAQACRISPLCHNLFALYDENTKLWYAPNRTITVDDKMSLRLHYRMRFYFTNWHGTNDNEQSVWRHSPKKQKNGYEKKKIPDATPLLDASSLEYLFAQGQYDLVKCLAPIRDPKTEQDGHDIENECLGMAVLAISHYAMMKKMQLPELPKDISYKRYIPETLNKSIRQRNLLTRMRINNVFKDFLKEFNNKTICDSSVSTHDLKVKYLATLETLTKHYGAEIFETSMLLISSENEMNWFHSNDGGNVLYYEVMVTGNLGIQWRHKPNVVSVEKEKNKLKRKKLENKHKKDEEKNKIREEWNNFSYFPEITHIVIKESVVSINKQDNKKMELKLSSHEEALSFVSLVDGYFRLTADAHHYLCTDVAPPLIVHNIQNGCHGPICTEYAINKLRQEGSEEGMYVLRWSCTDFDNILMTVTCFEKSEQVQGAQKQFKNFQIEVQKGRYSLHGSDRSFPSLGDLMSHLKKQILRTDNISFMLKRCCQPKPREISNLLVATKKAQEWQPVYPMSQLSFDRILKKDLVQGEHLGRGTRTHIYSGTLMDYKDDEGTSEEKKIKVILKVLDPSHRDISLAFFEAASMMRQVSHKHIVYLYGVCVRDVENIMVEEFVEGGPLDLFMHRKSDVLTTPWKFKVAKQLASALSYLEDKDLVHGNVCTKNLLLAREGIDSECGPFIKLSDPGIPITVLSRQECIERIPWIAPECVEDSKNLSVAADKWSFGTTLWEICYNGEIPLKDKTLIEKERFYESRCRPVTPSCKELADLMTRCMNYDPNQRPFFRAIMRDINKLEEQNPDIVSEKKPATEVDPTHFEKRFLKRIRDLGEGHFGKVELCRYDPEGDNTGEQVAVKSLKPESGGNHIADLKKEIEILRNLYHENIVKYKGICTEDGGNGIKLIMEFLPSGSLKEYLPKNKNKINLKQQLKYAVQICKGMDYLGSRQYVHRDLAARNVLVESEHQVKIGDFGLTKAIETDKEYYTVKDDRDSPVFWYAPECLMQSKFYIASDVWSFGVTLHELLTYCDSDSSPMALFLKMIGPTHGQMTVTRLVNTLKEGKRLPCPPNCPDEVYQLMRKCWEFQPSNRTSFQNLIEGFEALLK

SMILES: CCC(=O)N1CC[C@H](Nc2ncnc3c2CN(c2cnc(OC)c(C(F)(F)F)c2)CC3)C1 [LENIOLISIB]
- IC50 [1]: > 10 µM

SMILES: CC[C@@H]1[C@H](F)C(=O)N[C@@H]1COc1nccc2cc(C(N)=O)c(OC)cc12 [ZIMLOVISERTIB]
- % of inhibition [2]: -1%

SMILES: COCC(=O)NC/C=C/c1ccc2ncnc(Nc3ccc(Oc4ccc(C)nc4)c(C)c3)c2c1 [CP-724714]
- % of control [3]: 79%
- % of control [4]: 79%

— ChEMBL document CHEMBL5465560, “Selectivity Literature for EUbOPEN Chemogenomic Library” (2024)
